# Assay results from PubChem BioAssay (NCI).
#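 A five-concentration, 48-hour dose response in 96-well plates underlies each endpoint, interpolated linearly between surrounding concentrations. GI50 marks 50% less growth. At the TGI there is no net growth.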
# Assays:
# Test in all cases: NCI-60 cell line screen, 48 h
# NCI-H226 lung = test system: NCI-H226 lung
# KM12 colon = test system: KM12 colon
# M14 melanoma = test system: M14 melanoma
# A549 NSCLC = test system: A549 NSCLC
# HCC-2998 colon = test system: HCC-2998 colon
# TK-10 renal = test system: TK-10 renal
# MALME-3M melanoma = test system: MALME-3M melanoma
# SF-268 CNS = test system: SF-268 CNS
# UACC-257 melanoma = test system: UACC-257 melanoma
# SK-MEL-2 melanoma = test system: SK-MEL-2 melanoma
SMILES,TGI (NCI-H226 lung) [µM],TGI (KM12 colon) [µM],TGI (M14 melanoma) [µM],TGI (A549 NSCLC) [µM],TGI (HCC-2998 colon) [µM],TGI (TK-10 renal) [µM],TGI (MALME-3M melanoma) [µM],TGI (SF-268 CNS) [µM],TGI (UACC-257 melanoma) [µM],TGI (SK-MEL-2 melanoma) [µM],GI50 (KM12 colon) [µM],GI50 (M14 melanoma) [µM],GI50 (A549 NSCLC) [µM],GI50 (TK-10 renal) [µM],GI50 (MALME-3M melanoma) [µM],GI50 (SK-MEL-2 melanoma) [µM],GI50 (UACC-257 melanoma) [µM],GI50 (NCI-H226 lung) [µM],GI50 (HCC-2998 colon) [µM],GI50 (SF-268 CNS) [µM]
CN(C)c1ccc(-c2cc(=O)c3ccccc3[nH]2)cc1,> 100,> 100,> 100,> 100,> 100,> 100,> 100,> 100,> 100,–,–,–,–,–,–,–,–,–,–,–
COc1nc2c(OC)cccc2c(OC)c1C=O,> 100,> 100,> 100,> 100,–,> 100,> 100,–,> 100,> 100,–,–,–,–,–,–,–,–,–,–
O=P(c1ccccc1)(c1ccccc1)C1CC=C(c2ccccc2)C2(CCCC2)C1 (configuration not stated),> 100,> 100,> 100,> 100,–,> 100,> 100,> 100,> 100,> 100,–,–,–,–,–,–,–,–,–,–
O=C1NC(=O)C(C(=O)C(=O)Nc2ccc(Br)cc2)C(=O)N1,> 100,–,> 100,> 100,> 100,–,> 100,> 100,> 100,–,–,–,–,–,–,–,–,–,–,–
O=C1c2ccccc2-c2c1c1ccccc1c(=O)n2Cc1ccco1,> 100,> 100,> 100,> 100,–,> 100,> 100,> 100,> 100,> 100,–,–,–,–,–,–,–,–,–,–
Oc1cccc2c1NC1=C(CCC/C1=C\c1ccccc1)C2,> 100,> 100,> 100,> 100,> 100,> 100,> 100,> 100,> 100,–,–,–,–,–,–,–,–,–,–,–
COc1ccc2[nH]cc(CCNC(C)=O)c2c1,–,> 100,> 100,> 100,–,> 100,> 100,> 100,> 100,> 100,–,–,–,–,–,–,–,–,–,–
Nc1ccccc1C#CC#Cc1ccccc1N,–,36.2,65.8,87.4,–,32.9,61.3,–,24.5,51.7,8.46,7.34,13.8,12.5,35.2,21.7,4.56,–,–,–
COc1ccc(OCC(=O)O)c2c1CCC(C(C)C)C2=O (configuration not stated),–,> 100,> 100,> 100,> 100,> 100,> 100,–,> 100,> 100,–,–,–,–,–,–,–,–,–,–
COC(=O)c1c[nH]cc1CCc1c[nH]cc1C(=O)OC,> 100,> 100,–,> 100,> 100,> 100,> 100,> 100,> 100,> 100,–,–,–,–,–,–,–,–,–,–
O=C(Nc1ccc(-c2nc3cc4ccccc4cc3[nH]2)cc1)c1cccc(Br)c1,50.2,32.4,24.8,10.6,> 100,11.3,28.9,26.8,52.3,–,7.24,7.59,2.83,4,12.8,–,21,21.4,31.1,9.22
CC(=O)N(C)OC(=O)CC(=O)c1ccccc1,> 100,> 100,> 100,> 100,> 100,> 100,> 100,> 100,> 100,–,–,–,–,–,–,–,–,–,–,–
CC(C)C(C(=O)O)N(CC1(O)OCC(O)C(O)C1O)N=O (configuration not stated),–,> 100,> 100,> 100,> 100,> 100,> 100,–,> 100,> 100,–,–,–,–,–,–,–,–,–,–
CCNc1nnc(CSc2nc(-c3ccccc3)c(-c3ccccc3)[nH]2)s1,35,23.9,35.7,69.5,–,56.5,48.4,39.3,34.9,41.9,–,–,–,–,–,–,–,–,–,–
C/C(=N\NC(=S)N1CCCCCC1)c1nccnc1C,–,> 100,0.654,30.6,> 100,> 100,> 100,> 100,1.77,50.2,–,–,–,–,–,–,–,–,–,–
CN(C)/[N+]([O-])=N/Oc1cc(Nc2cccc(C(=O)O)c2)c([N+](=O)[O-])cc1[N+](=O)[O-],> 100,> 100,–,> 100,–,> 100,–,78.5,> 100,> 100,86.7,–,> 100,> 100,–,36,> 100,> 100,–,30
